We go through one substance from US9919029B2, “Methods and pharmaceutical compositions for the treatment of bacterial infections” (INSERM (INSTITUT NATIONAL DE LA SANTE ET DE LA RECHERCHE …, priority 2013, dated 2018).

In the experiment the test system is Streptococcus pneumoniae. Description: Streptococcus pneumoniae respiratory infection in mice. The format is in vivo, BALB/c mice. Conditions: severe/advanced infection; nasal flagellin plus antibiotic (oral amoxicillin or intraperitoneal bactrim). On the procedure:
Animals were infected with a lethal dose of Streptococcus pneumoniae (1-5×10^6 CFU of serotypel, clinical isolate E1586) and treated at 40 h and 48 h as depicted in the upper panel. Seventeen hours later (T=65 h), bacterial counts were defined by plating tissue homogenates. The Left side: bacterial counts per lung. Right side: bacterial counts per spleen.
Animals were infected with a lethal dose of Streptococcus pneumoniae (1-5×10^6 CFU of serotypel, clinical isolate E1586) and treated at 30 h as depicted in the upper panel. Sixteen hours later (T=46 h), bacterial counts were defined by plating tissue homogenates. The Left side: bacterial counts per lung. Right side: bacterial counts per spleen.
Animals were infected with a lethal dose of Streptococcus pneumoniae (1-5×10^6 CFU of serotypel, clinical isolate E1586) and treated from 12 h to 84 h as depicted in the upper panel. Survival of animals was then analyzed during 5 days.
FIG. 6. […] (A) S. pneumoniae-infected (2×10^6 CFU) BALB/c mice were treated intraperitoneally with 4.8 mg bactrim, i.e. co-trimoxazole (TMP-SMX) and intranasally with 2.5 μg flagellin FliCΔ174-400 and analyzed as indicated. (B) Survival was monitored every 12 h for 9 days. (C, D) Bacterial counts in lung (C) and spleen (D) was determined by measuring CFU per tissue. […] (E) The body weight of infected animals was measured and expressed relative to the initial weight. […]

Take flagellin: the “reduction of number of bacteria compared to the antibiotic therapy alone” value is recorded as 10-to-50 fold.
